Results: patent US8044028B2, “Oligopeptides and their use in cosmetics” (Cognis France S.A.S., priority 2004, dated 2011)
No end group written: not given here. *: point of attachment. Palmitoyl = CCCCCCCCCCCCCCCC(=O)*

Legend:
human keratinocytes = experiment: Effects on the growth of human primary keratinocytes (cellular DNA content, ethidium bromide fluorescence); format: cell-based; conditions: for DNA after culture for 4-5 days: % based on control (standard medium without additives = 100), average of 3 assays in triplicate; for growth of human keratinocytes (result in words): keratinocytes cultivated from biopsies of adult subjects, activity still detected after 5 days without changing medium; for DNA after culture for 3 days: % based on control = 100
Method: The aim of this test was to analyse the revitalizing and regenerating activities of oligpopeptides according to the invention on human keratinocyte cultures in vitro.
Human keratinocytes were obtained by trypsinization of skin biopsies. They were incubated in standard medium for cell cultures with foetal calf serum (FCS) and growth factors (EGF 10 ng/ml). After cultivation for 2 days at 37° C. and a CO2 content of 5%, the medium was replaced by standard medium with varying concentrations of peptides. […] The fluorescence was determined using a fluorimeter (excitation at 538 nm and emission at 590 nm). The foetal calf serum forms a positive control because it comprises many growth factors, such as, for example, IGF (insulin-like growth factor) and PDGF (platelet derived growth factor).
The results are shown in Table 1 and 2 as the average value from 3 assays in triplicate in % based on a control in which the standard medium comprised no additives.

syndecan-1 = experiment: Stimulation of the synthesis of syndecan-1 on human keratinocytes (immunocytochemistry, image analysis); format: cell-based; conditions: keratinocyte culture, biopsies of adult subjects
Method: Monoclonal antibody anti-syndecan-1 and secondary antibody FITC conjugated were obtained from TEBU, Le Perray en Yvelines and BIO-RAD, Marnes-la-Coquette; KGF (Keratinocyte Growth Factor) (positive control) was obtained from SIGMA, L′Isle d'Abeau Chesnes.
Human keratinocytes were seeded in DMEM standard medium for 2 days at 37° C., CO2=5%. Then, N-Acetyl-Pro-Pro-Tyr-Leu (Seq. ID No. 375) or positive control KGF are introduced and after 5 days of incubation at 37° C., CO2=5%, the synthesis of syndecan-1 was evaluated on glass slides by immunocytochemistry. Quantification of the staining was carried out by image analysis.
The results are shown in table 3 as the mean of the sum±SEM of the product of number of pixels by green detected values (arbitrary unit).

Molecule | DNA after culture for 4-5 days (human keratinocytes; 0.001 % (w/v) peptide) | DNA after culture for 4-5 days (human keratinocytes; 0.003 % (w/v) peptide) | growth of human keratinocytes (result in words) (human keratinocytes) | DNA after culture for 3 days (human keratinocytes; 0.00005 % (w/v) peptide) | DNA after culture for 3 days (human keratinocytes; 0.00015 % (w/v) peptide) | syndecan-1 expression / synthesis in human keratinocytes (result in words) (syndecan-1)
Pro-Tyr-Leu-Pro-Arg (PYLPR; peptide derived from cathelicidin PR-39) [Example 5, R1=H, R2=OH] | 118 +/− 3% | 112 +/− 5% | stimulate the growth of human keratinocytes |  |  | 
Pro-Pro-Tyr-Leu (PPYL; peptide derived from cathelicidin PR-39) [Example 4, R1=H, R2=OH] | 150 +/− 26% | 166 +/− 7% | stimulate the growth of human keratinocytes |  |  | 
N-Palmitoyl-Pro-Pro-Tyr-Leu (Palmitoyl-PPYL) [Example 7, [AA] is Pro-Pro-Tyr-Leu, R1 is Palmitoyl and R2 is OH] |  |  |  | 136 +/− 13% | 135 +/− 8% | 
N-Acetyl-Pro-Pro-Tyr-Leu (Ac-PPYL) [[AA] is Pro-Pro-Tyr-Leu, R1 is Acetyl, and R2 is OH] |  |  |  |  |  | stimulates the synthesis of syndecan-1
Tyr-Leu-Pro-Arg-Pro [Example 6] | 110 +/− 6% | 146 +/− 24% | stimulate the growth of human keratinocytes |  |  | 
Arg-Arg-Arg-Pro-Arg (RRRPR; peptide derived from cathelicidin PR-39) [Example 2, R1=H, R2=OH] | 119 +/− 6% | 126 +/− 8% | stimulate the growth of human keratinocytes |  |  | 
Arg-Pro-Pro-Tyr-Leu (RPPYL; peptide derived from cathelicidin PR-39) [Example 3, R1=H, R2=OH] | 97 +/− 1% | 118 +/− 10% | stimulate the growth of human keratinocytes |  |  | 
RRRPRPPYLPRPRPP [Example 1] | 124 +/− 15% | 131 +/− 11% | stimulate the growth of human keratinocytes |  |  | 
KGF: KGF (Keratinocyte Growth Factor) (positive control), obtained from SIGMA (protein, UniProt P21781 32-194, looked up) Fibroblast growth factor 7: CNDMTPEQMATNVNCSSPERHTRSYDYMEGGDIRVRRLFCRTQWYLRIDKRGKVKGTQEMKNNYNIMEIRTVAVGIVAIKGVESEFYLAMNKEGKLYAKKECNEDCNFKELILENHYNTYASAKWTHNGGEMFVALNQKGIPVRGKKTKKEQKTAHFLPMAIT |  |  |  |  |  | induced an increase of syndecan-1 expression
